Reference: ChEMBL document CHEMBL4033698, “One-pot synthesis and biological evaluation of N-(aminosulfonyl)-4-podophyllotoxin carbamates as potential anticancer agents” (Bioorg Med Chem Lett, 2017)
pIC50: −log10 of the molar value. Calls of active or inactive are those of the source. The rule behind the calls is not given here.

What was measured:
[1] = system: HeLa; experiment: Cytotoxicity against human HeLa cells after 48 hrs by MTT assay; assay type: functional, cell-based
[2] = system: A549; experiment: Cytotoxicity against human A549 cells after 48 hrs by MTT assay; assay type: functional, cell-based; conditions: A549, 48 h
[3] = system: HepG2; experiment: Cytotoxicity against human HepG2 cells after 48 hrs by MTT assay; assay type: functional, cell-based; conditions: HepG2, 48 h
[4] = system: HCT-8; experiment: Cytotoxicity against human HCT8 cells after 48 hrs by MTT assay; assay type: functional, cell-based; conditions: HCT-8, 48 h
[5] = system: WI-38; experiment: Cytotoxicity against human WI38 cells after 48 hrs by MTT assay; assay type: cell-based; conditions: WI-38, 48 h
[6] = system: HeLa; experiment: Induction of microtubule disruption in human HeLa cells assessed as short microtubule at 1 uM after 6 hrs by DAPI staining based immunofluorescence microscopic analysis; assay type: cell-based
[7] = system: HeLa; experiment: Induction of microtubule disruption in human HeLa cells assessed as dense microtubule at 1 uM after 6 hrs by DAPI staining based immunofluorescence microscopic analysis; assay type: cell-based
[8] = system: HeLa; experiment: Induction of microtubule disruption in human HeLa cells assessed as round microtubule at 1 uM after 6 hrs by DAPI staining based immunofluorescence microscopic analysis; assay type: cell-based
[9] = system: HeLa; experiment: Induction of microtubule disruption in human HeLa cells assessed as nuclear fragmentation after 6 hrs by DAPI staining based immunofluorescence microscopic analysis; assay type: cell-based
[10] = system: HeLa; experiment: Induction of microtubule disruption in human HeLa cells assessed as dense microtubule after 6 hrs by DAPI staining based immunofluorescence microscopic analysis; assay type: cell-based
[11] = system: HeLa; experiment: Cell cycel arrest in human HeLa cells assessed as decrease in accumulation at G1 phase after 24 hrs by propidium iodide staining based assay; assay type: functional
[12] = system: HeLa; experiment: Induction of microtubule disruption in human HeLa cells assessed as round microtubule after 6 hrs by DAPI staining based immunofluorescence microscopic analysis; assay type: cell-based
[13] = system: HeLa; experiment: Inhibition of tubulin polymerization in human HeLa cells assessed as reduction in polymerized tubulin expression at 0.5 uM after 24 hrs by chemiluminescence assay; assay type: cell-based
[14] = system: HeLa; experiment: Induction of apoptosis in human HeLa cells assessed as increase in intracellular reactive oxygen species level after 24 hrs by DCFH-DA staining based laser confocal microscopic analysis; assay type: functional, cell-based
[15] = system: HeLa; experiment: Induction of apoptosis in human HeLa cells assessed as morphological changes at 0.1 to 1 uM after 24 hrs by Hoechst 33258 staining based fluorescence microscopic analysis; assay type: functional, cell-based
[16] = system: HeLa; experiment: Inhibition of tubulin polymerization in human HeLa cells assessed as reduction in polymerized tubulin expression at 2 uM after 24 hrs by chemiluminescence assay; assay type: cell-based
[17] = target: Cyclin-dependent kinase 1 (Homo sapiens) (UniProt P06493); experiment: Reduction in phosphorylated CDC2 level in human HeLa cells after 24 hrs by Western blot analysis; assay type: cell-based
[18] = system: HeLa; experiment: Induction of microtubule disruption in human HeLa cells assessed as short microtubule after 6 hrs by DAPI staining based immunofluorescence microscopic analysis; assay type: cell-based
[19] = system: HeLa; experiment: Upregulation of CDC2 expression in human HeLa cells after 24 hrs by Western blot analysis; assay type: functional, cell-based
[20] = system: HeLa; experiment: Induction of microtubule disruption in human HeLa cells assessed as cell shrinkage after 6 hrs by DAPI staining based immunofluorescence microscopic analysis
[21] = system: HeLa; experiment: Upregulation of cyclin B1 expression in human HeLa cells after 24 hrs by Western blot analysis; assay type: functional, cell-based
[22] = system: HeLa; experiment: Cell cycel arrest in human HeLa cells assessed as increase in accumulation at G2/M phase after 24 hrs by propidium iodide staining based assay; assay type: functional
[23] = system: HeLa; experiment: Induction of apoptosis in human HeLa cells assessed as nuclear fragmentation at 0.1 to 1 uM after 24 hrs by Hoechst 33258 staining based fluorescence microscopic analysis; assay type: functional, cell-based
[24] = system: HeLa; experiment: Induction of microtubule disruption in human HeLa cells assessed as nuclear condensation after 6 hrs by DAPI staining based immunofluorescence microscopic analysis; assay type: cell-based
[25] = system: HeLa; experiment: Induction of apoptosis in human HeLa cells assessed as upregulation of p53 expression by Western blot analysis; assay type: functional, cell-based

Chain of Cyclin-dependent kinase 1 (Homo sapiens) (P06493 whole entry, looked up): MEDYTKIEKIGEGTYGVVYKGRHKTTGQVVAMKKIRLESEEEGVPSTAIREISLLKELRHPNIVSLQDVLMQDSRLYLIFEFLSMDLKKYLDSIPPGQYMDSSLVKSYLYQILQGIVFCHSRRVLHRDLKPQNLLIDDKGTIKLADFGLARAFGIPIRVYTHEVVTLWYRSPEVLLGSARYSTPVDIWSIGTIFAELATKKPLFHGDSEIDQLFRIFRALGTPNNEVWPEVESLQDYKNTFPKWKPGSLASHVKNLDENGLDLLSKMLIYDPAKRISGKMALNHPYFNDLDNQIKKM

Structure (SMILES) | pIC50 [1] | pIC50 [2] | pIC50 [3] | pIC50 [4] | pIC50 [5] | also measured
COc1cc([C@@H]2c3cc4c(cc3[C@H](OC(=O)NS(=O)(=O)NC3CCN(C)CC3)[C@H]3COC(=O)[C@H]23)OCO4)cc(OC)c1OC | 5.39 | 5.48 | 4.81 | 4.02 | 4.16 | 
COc1cc([C@@H]2c3cc4c(cc3[C@H](OC(=O)NS(=O)(=O)N3CCN(C)CC3)[C@H]3COC(=O)[C@H]23)OCO4)cc(OC)c1OC | 6.40 | 5.23 | 5.82 | < 4.00 | 4.06 | 
COc1cc([C@@H]2c3cc4c(cc3[C@H](OC(=O)NS(=O)(=O)NC3CC3)[C@H]3COC(=O)[C@H]23)OCO4)cc(OC)c1OC | 5.41 | 5.37 | 5.06 | 4.35 | 4.19 | 
COc1cc([C@@H]2c3cc4c(cc3[C@H](OC(=O)NS(=O)(=O)N3CCN(C5CCCC5)CC3)[C@H]3COC(=O)[C@H]23)OCO4)cc(OC)c1OC | 4.24 | 5.01 |  |  | 4.32 | 
COc1cc([C@@H]2c3cc4c(cc3[C@H](OC(=O)NS(=O)(=O)N3CCN(c5ccc([N+](=O)[O-])cc5)CC3)[C@H]3COC(=O)[C@H]23)OCO4)cc(OC)c1OC | 4.45 | 4.86 | 5.22 | < 4.00 | 4.11 | 
COc1cc([C@@H]2c3cc4c(cc3[C@@H](O[C@@H]3O[C@@H]5CO[C@@H](C)O[C@H]5[C@H](O)[C@H]3O)[C@H]3COC(=O)[C@H]23)OCO4)cc(OC)c1O [ETOPOSIDE] | 4.60 |  | 4.87 | 4.58 | 4.33 | 
COc1cc([C@@H]2c3cc4c(cc3[C@H](OC(=O)NS(=O)(=O)N3CCN(c5ccc(F)cc5)CC3)[C@H]3COC(=O)[C@H]23)OCO4)cc(OC)c1OC | 5.12 | 4.91 |  |  | 4.35 | 
COc1cc2c(c(OC)c1OC)-c1ccc(OC)c(=O)cc1[C@@H](NC(C)=O)CC2 |  |  |  |  |  | Activity [6]: Active; Activity [7]: Active; Activity [8]: Active
COc1cc([C@@H]2c3cc4c(cc3[C@H](OC(=O)NS(=O)(=O)N3CCOCC3)[C@H]3COC(=O)[C@H]23)OCO4)cc(OC)c1OC | 6.30 | 5.82 | 6.15 | 4.78 | 3.96 | Activity [9]: Dose-dependent effect; Activity [10]: Dose-dependent effect; Activity [11]: Dose-dependent effect; Activity [12]: Dose-dependent effect; inhibition [13]: Active; Activity [14]: Dose-dependent effect; Activity [15]: Active; inhibition [16]: Active; Activity [17]: Dose-dependent effect; Activity [18]: Dose-dependent effect; Activity [19]: Dose-dependent effect; Activity [20]: Dose-dependent effect; Activity [21]: Dose-dependent effect; Activity [22]: Dose-dependent effect; Activity [23]: Active; Activity [24]: Dose-dependent effect; Activity [25]: Dose-dependent effect
CC(=O)O[C@H]1C(=O)[C@@]2(C)[C@H]([C@H](OC(=O)c3ccccc3)[C@]3(O)C[C@H](OC(=O)[C@H](O)[C@@H](NC(=O)c4ccccc4)c4ccccc4)C(C)=C1C3(C)C)[C@]1(OC(C)=O)CO[C@@H]1C[C@@H]2O |  |  |  |  |  | inhibition [16]: inactive
CCCNS(=O)(=O)NC(=O)O[C@H]1c2cc3c(cc2[C@@H](c2cc(OC)c(OC)c(OC)c2)[C@H]2C(=O)OC[C@@H]21)OCO3 | 5.72 | 5.05 | 5.55 | 4.63 | 4.20 | 
COc1cc([C@@H]2c3cc4c(cc3[C@H](OC(=O)NS(=O)(=O)NC3CCCCC3)[C@H]3COC(=O)[C@H]23)OCO4)cc(OC)c1OC | 5.34 | 5.59 | 5.43 | 4.70 | 4.11 | 
